Test results reported in patent US20070128657A1, “Molecular libraries” (priority 2002, published 2007).

What was measured:
Type in all cases: cell-based, Homo sapiens (human)
[1] = test system: U-2 OS (WTp53); assay: Cell proliferation status after ligand transfection, U-2 OS; conditions: U2-OS, without puromycin selection
Procedure: (§1) The purpose of this experiment is to confirm that the selected peptide ligand indeed restores the mutated p53 protein to the wild-type p53 function in SW480.7 cells. […] There might be a chance that the cells got the resistance with, or even without the help of the selected ligand via mechanisms other than p53-transactivated p21 promoter. Thus we should make sure that the mutant p53 in SW480.7 cells functions as wild-type p53 only if the selected ligand is added. […] The selected peptide ligand can be further verified only if it can induce cell cycle arrest or apoptosis in SW480.7 cells but neither in U-2 OS nor in Saos2 cells, which means the specificity of the selected ligand to p53 mutation in SW480.7. • 2—We also tested the transcription levels of genes that are only transactivated by wild-type p53.
(§2) Cells SW480.7, U-2OS, and Sa-os2 were transfected with peptide ligand and pCEP4 parallelly using the calcium phosphate method.
(§3) After transfection, cells were cultured without drug selection and diluted at the ratio of 1:100 every five days. Cell proliferation status was closely observed until ligand transfected SW480.7 cells died out. Life staining with 0.4% trypan blue was applied to determine the death of the cells. Dead cells can not exclude the dye thus were stained blue. Living cells can pump the dye outside thus were not stained. […]

[2] = test system: SW480.7 cells; assay: Cell proliferation status / death after ligand transfection, SW480.7; conditions: SW480.7, 15 days, without puromycin selection
Procedure: as §1, §2, §3

[3] = test system: R273H/P309S p53 mutant; assay: RT-PCR of genes transactivated by wild-type p53 in ligand transfected SW480.7 cells
Procedure: as §1
P53 (wild-type) regulates different cell responses via transactivating different downstream genes. For example p53 causes cell cycle arrest at G1 phase by transactivation of p21 gene. While p53 causes cell arrest at G2 phase by transactivation of […]. Apoptosis is due to p53 transactivation of […] and/or Bax gene. Thus we measured p21, CD95, and 14-3-3σ gene transcription levels by RT PCR, to reveal the capability of the selected peptide ligand in restoring the wild-type p53 transactivation of the downstream genes. The expression level of β-actin was measured as a control. β-Actin transcription level was used to normalize total mRNA amount between samples for comparison owing to its constitutive expression in all cells.
After transfection, cells were cultured without drug selection and diluted at the ratio of 1:100 every five days. Cell proliferation status was closely observed until ligand transfected SW480.7 cells died out. Life staining with 0.4% trypan blue was applied to determine the death of the cells. Dead cells can not exclude the dye thus were stained blue. Living cells can pump the dye outside thus were not stained. Total RNA was collected from two wells of one ligand transfected SW480.7 plate and one pCEP4 transfected SW480.7 plate each day on day 0, day 1, and day 2 after transfection. Thus RNA samples were harvested as SW480.7/Ligand-0 day, SW480.7/Ligand-1 day, SW480.7/Ligand-2 day, SW480.7/pCEP4-0 day, SW480.7/pCEP4-1 day, SW480.7/pCEP4-2 day. Protocol for total RNA extraction by TRIZOL® Reagent was according to that given by Life Technology:
cDNA Amplification by PCR
8. Electrophoreses 5 μl of each PCR reaction alongside 0.1 μg of 1-kb DNA ladder on a 1.2% agarose/EtBr gel in 1×TBE buffer.

[4] = test system: Saos2 cells (no p53 copy); assay: Cell proliferation status after ligand transfection, Saos-2; conditions: Saos-2, without puromycin selection
Procedure: as §1, §2, §3

[5] = ligand transfected SW480.7 compared with empty pCEP4 transfected SW480.7 cells

M G W C T (MGWCT; Peptide sequence translated from DNA extracted from library-transfected cells.) [ligand]
Cell growth status after transfection of the ligand [1]: growing well | Cell growth status after transfection of the ligand [2]: could no longer attach to the wall and died | Restoration of wild type p53 function (RT-PCR analysis of mRNA) ([3]; ligand transfected SW480.7 cells): can reestablish wild type p53 function | mRNA level of 14-3-3 gene [3, 5]: Higher | mRNA level of CD95 gene [3, 5]: Higher | mRNA level of p21 (WAF1/Cip1) gene [3, 5]: Higher | Cell growth status after transfection of the ligand [4]: growing well
